Broadly, the Km is the concentration of substrate that gives half-maximal velocity. A word on the IC50: it is the concentration that inhibits the measured activity by half.

Read-outs that look alike come from different tables or passages of the source.

Experimental findings from US6815183B1, “Plasmodium sp. chitinase” (The Board of Regents of the University of Texas System, priority 1999, dated 2004) are described below.

Experiment [1] relates to Endo Lys-C-treated rPgCHT1. The experiment is described as follows: Kinetics of Endo Lys-C-treated rPgCHT1-NT1 on 4-MU substrates (Lineweaver-Burk plot). The settings on record: pH 6.0.
Description: Analysis of Chitinase Activity. Chitinase activity of both native and recombinant chitinases was assessed in three ways. […] Second, microfluorimetry (HTS7000, Perkin-Elmer, excitation 360 nm and emission 465 nm) was used to measure the hydrolysis of 4-MU GlcNAc, 4-MU GlcNAc2, 4-MU GlcNAc3, and 4-MU GlcNAc4 (Sigma) as described previously. Initial enzyme reaction rates were measured. Enzymatic activity is reported as relative fluorescence units or fold change.
For experiment [2], the target named is peak 1 of chitinase activity (native PgCHT1) (Plasmodium gallinaceum, UniProt Q9NJX9). It counts as biochemical.
peak 1 of chitinase activity (native PgCHT1), sequence (Q9NJX9 entry or part of it): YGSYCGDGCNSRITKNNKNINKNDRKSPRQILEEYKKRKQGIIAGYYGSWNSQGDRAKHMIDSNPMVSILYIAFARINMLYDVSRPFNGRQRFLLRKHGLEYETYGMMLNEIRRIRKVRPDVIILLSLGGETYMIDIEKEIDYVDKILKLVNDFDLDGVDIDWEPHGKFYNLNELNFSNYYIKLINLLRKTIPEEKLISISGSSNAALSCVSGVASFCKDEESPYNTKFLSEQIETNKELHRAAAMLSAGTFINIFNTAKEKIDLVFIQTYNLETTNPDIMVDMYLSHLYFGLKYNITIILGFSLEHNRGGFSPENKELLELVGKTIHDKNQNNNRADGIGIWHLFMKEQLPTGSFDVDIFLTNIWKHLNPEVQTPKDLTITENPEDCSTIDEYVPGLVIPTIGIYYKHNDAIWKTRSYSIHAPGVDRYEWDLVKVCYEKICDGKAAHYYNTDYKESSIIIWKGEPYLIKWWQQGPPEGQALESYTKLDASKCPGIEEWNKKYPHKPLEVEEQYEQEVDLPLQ
For the next experiment, the target named is rPgCHT1 (Plasmodium gallinaceum, UniProt Q9NJX9). The experiment in a line: biochemical.
rPgCHT1, sequence (Q9NJX9 entry or part of it): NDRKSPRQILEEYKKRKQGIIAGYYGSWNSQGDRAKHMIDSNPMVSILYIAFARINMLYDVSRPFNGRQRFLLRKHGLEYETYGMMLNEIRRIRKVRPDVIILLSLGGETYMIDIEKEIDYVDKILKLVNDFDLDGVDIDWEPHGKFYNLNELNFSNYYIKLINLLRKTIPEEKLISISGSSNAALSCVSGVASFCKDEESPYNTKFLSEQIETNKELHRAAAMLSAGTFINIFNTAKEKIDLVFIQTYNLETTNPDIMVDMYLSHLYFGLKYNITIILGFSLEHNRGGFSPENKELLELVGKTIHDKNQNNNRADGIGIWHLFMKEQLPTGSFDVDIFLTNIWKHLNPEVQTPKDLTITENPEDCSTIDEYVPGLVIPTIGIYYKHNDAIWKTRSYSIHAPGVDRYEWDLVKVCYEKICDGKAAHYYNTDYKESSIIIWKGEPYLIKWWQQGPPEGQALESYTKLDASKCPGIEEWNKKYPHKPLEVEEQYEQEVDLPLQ
Experiment [3] addresses peak 2 of chitinase activity (PgCHT2) (Plasmodium gallinaceum, UniProt A0A1J1H1G1). It counts as biochemical.

peak 2 of chitinase activity (PgCHT2), sequence (A0A1J1H1G1 entry or part of it): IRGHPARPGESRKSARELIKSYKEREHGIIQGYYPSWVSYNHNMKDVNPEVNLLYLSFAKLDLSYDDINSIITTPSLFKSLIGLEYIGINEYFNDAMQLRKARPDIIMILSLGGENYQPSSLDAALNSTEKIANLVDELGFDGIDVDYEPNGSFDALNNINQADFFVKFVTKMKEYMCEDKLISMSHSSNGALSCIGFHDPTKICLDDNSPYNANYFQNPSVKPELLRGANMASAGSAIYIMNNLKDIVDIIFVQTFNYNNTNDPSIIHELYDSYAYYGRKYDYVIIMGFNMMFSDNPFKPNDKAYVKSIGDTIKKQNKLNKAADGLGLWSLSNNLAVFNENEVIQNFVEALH

In the case of `CC(=O)N[C@H]1[C@H](Oc2ccc3c(C)cc(=O)oc3c2)O[C@H](CO)[C@@H](O[C@@H]2O[C@H](CO)[C@@H](O[C@@H]3O[C@H](CO)[C@@H](O)[C@H](O)[C@H]3NC(C)=O)[C@H](O)[C@H]2NC(C)=O)[C@@H]1O` [4-MU GlcNAc3, 4-methylumbelliferyl-N,N′,N″-β-D-triacetylchitotrioside], in experiment [1], the Michaelis-Menten constant (Km) worked out at 140 µM.
Take `CC(=O)N[C@H]1[C@H](O[C@H]2[C@@H](O)[C@@H](NC(C)=O)[C@H](O[C@H]3[C@H](O)[C@H]4N=C(N(C)C)O[C@H]4[C@@H]3CO)O[C@@H]2CO)O[C@H](CO)[C@@H](O)[C@H]1O` [allosamidin]: the IC50 was 7 µM in experiment [2], 12 µM on rPgCHT1, 0.3 µM in experiment [3] (read-out: IC50 of PgCHT2) and 0.3 µM in experiment [3] (read-out: IC50 value for peak 2).
